Measurements: article PMC5841303, “In silico screening for human norovirus antivirals reveals a novel non-nucleoside inhibitor of the viral polymerase” (Scientific Reports, 2018)
Where two headings read alike, the source gives them in different places.

Legend:
[1] = biological target: human norovirus Sydney 2012 RdRp (Norovirus GII.4 (Norwalk virus, human norovirus), UniProt K4L8Z7); test: Fluorescent de novo RdRp activity assay (PicoGreen, poly(C) template); type: biochemical; conditions: for inhibition at 100 µM: read-out: inhibition of human norovirus RdRp activity, 100 µM
Method: The 62 compounds identified in silico were screened for inhibition of norovirus RdRp activity using an in vitro fluorescent, de novo RdRp assay. Compounds were tested at fixed concentrations of 10 µM and 100 µM, and compared to mock treated samples containing the vehicle only (0.5% DMSO [vol/vol]) (Fig. 4A,B). […] For certain compounds, significant insolubility was observed, coupled with either inherent fluorescence quenching (positive y-axis values on Fig. 4A,B) or enhancement of the fluorescence signal (negative y-axis values).
The newly synthesised compounds, including the re-prepared hit 13 and some synthesis intermediates (Table 1), were initially evaluated on norovirus Sydney 2012 RdRp activity in vitro using a quantitative fluorescent assay. Compounds were tested at a fixed concentration of 10 μM and compared to the relative activity of mock treated samples.
Recombinant calicivirus RdRps (GenBank accession numbers) norovirus GII.Pe/GII.4 Sydney 2012 (KT239579), MNV GV CW1 (DQ285629), RHDV Czech V351 (KF594473.1), and SaV GI.1 Mc114 (AY237422) were expressed and purified as described previously[60],[61]. RdRp resistance mutants were generated using the QuikChange site-directed mutagenesis kit (Agilent Technologies, Santa Clara, CA, USA) and confirmed by Sanger sequencing.
(§1) Fluorescent RdRp activity assays were carried out as previously described[14],[62]. Briefly, RdRp activity was quantified by monitoring the formation of double-stranded RNA (dsRNA) from a single stranded homopolymeric template, poly(C) (Sigma Aldrich, St Louis, MO, USA), using the fluorescent dye PicoGreen (Life Technologies, Carlsbad, CA, USA). RdRp assays were performed in 384-well plates, and each reaction mixture contained 400 ng enzyme, 45 µM GTP, 10 ng/µL poly(C) RNA, 2.5 mM MnCl2, 5 mM dithiothreitol, (DTT), 0.01% bovine serum albumin (BSA), and 0.005% Tween 20 in 20 mM Tris-HCl, pH 7.5, with a final reaction volume of 25 µL. The previous published norovirus NNI NIC02 was used as a positive control. RdRps were incubated for 10 mins at 30 °C in the presence of the test compounds or the compound vehicle DMSO (0.5% vol/vol) before addition into the reaction mixture, which was then allowed to run 15 min at 30 °C then terminated with 10 mM EDTA, followed by PicoGreen staining and dsRNA quantitation. GraphPad Prism V6.05 (La Jolla, CA, USA) was used to plot the IC50 values. In cases where fluorescent enhancement was recorded for a compound instead of inhibition, a secondary gel-based polymerase activity assay was used as a counter-screen as described below, to exclude the possibility of RdRp activity enhancement (Supplementary Fig. S1). Primed elongation activity was examined in a gel-based assay as previously described[16],[63] using the RNA template (PE44-NoV, Fig. 4D). Gels were imaged using BioRad (Hercules, CA, U.SA) Geldoc Universal Hood II, running BioRad Image Lab software, V4.1, build 16. Antagonism was calculated using Compusyn software V1.0[59]. 54 and PPNDS (4:1 ratio) were tested alone and together against norovirus Sydney 2012 RdRp.

[2] = test system: norovirus RdRp; test: Counter-screen gel-shift RdRp assay (primed elongation of PE44-NoV template); type: biochemical, human norovirus; conditions: fixed concentration of 100 µM
Method: In this assay, a 32 nucleotide RNA template (PE44-NoV) is extended to 44 nucleotides in the presence of an active RdRp[16]. […] Inhibition of primed elongation of the PE44-NoV template was examined at a fixed concentration of 100 µM (Fig. 4D). In the absence of inhibition (0.5% DMSO vehicle only) the RNA template was extended to 44 nucleotides (Fig. 4D), evidenced by an upward gel shift and the appearance of the second, higher band.
as §1

[3] = biological target: T1, MNV RdRp (Norovirus, UniProt Q80J95); test: Fluorescent RdRp activity assay, MNV RdRp; type: biochemical, murine norovirus; conditions: fixed concentration of 100 µM
T1 construct: made in house
Source text: The antiviral activity of the four compounds (11, 13, 42a and 54) were examined for inhibition of RNA polymerases from other viruses spanning three genera of the Caliciviridae family, including Norovirus (human norovirus and MNV), Lagovirus (rabbit haemorrhagic disease virus [RHDV]) and Sapovirus (human sapovirus). […] The protein sequence of the examined calicivirus polymerases has an identity range between 30.2–61.4%, and therefore the broad-spectrum activity of these compounds could be attributed to a common, highly-conserved binding pocket across the RdRps, as has been previously reported with broad-spectrum activity of other site-B binding NNIs[16]. Moreover, the ability of each compound to inhibit the different RdRps in a similar range could be further confirmation of targeting a well-conserved binding site of the Caliciviridae family.
Recombinant calicivirus RdRps (GenBank accession numbers) norovirus GII.Pe/GII.4 Sydney 2012 (KT239579), MNV GV CW1 (DQ285629), RHDV Czech V351 (KF594473.1), and SaV GI.1 Mc114 (AY237422) were expressed and purified as described previously[60],[61]. […]
Fluorescent RdRp activity assays were carried out as previously described[14],[62]. Briefly, RdRp activity was quantified by monitoring the formation of double-stranded RNA (dsRNA) from a single stranded homopolymeric template, poly(C) (Sigma Aldrich, St Louis, MO, USA), using the fluorescent dye PicoGreen (Life Technologies, Carlsbad, CA, USA). […] RdRps were incubated for 10 mins at 30 °C in the presence of the test compounds or the compound vehicle DMSO (0.5% vol/vol) before addition into the reaction mixture, which was then allowed to run 15 min at 30 °C then terminated with 10 mM EDTA, followed by PicoGreen staining and dsRNA quantitation. […] In cases where fluorescent enhancement was recorded for a compound instead of inhibition, a secondary gel-based polymerase activity assay was used as a counter-screen as described below, to exclude the possibility of RdRp activity enhancement (Supplementary Fig. S1). […] Antagonism was calculated using Compusyn software V1.0[59]. […]

[4] = Observed compound solubility; type: physicochemical; conditions: assay conditions / 100% DMSO
Method: Therefore, they were counter-screened at 100 µM in a secondary gel-based assay (Supplementary Fig. S1).
To confirm RdRp inhibition and to exclude any potential false positives from the first fluorescence RdRp assay, the eight selected compounds (Fig. 4C) were then assessed using a gel-shift enzyme activity assay.
Dose-dependent inhibitory response curves were used to establish IC50 values for the five test compounds (Table 2). […] Therefore, 42b was too insoluble to attain a reliable confidence interval in the dose-response experiments and was not examined further. However, from the other four compounds, hit 11 and its phenyl derivative 54 gave the lowest IC50 values, 3–5 fold improved compared with 13 and its derivative 42a, confirming increased RdRp inhibitory activity associated with this scaffold.

[5] = test system: MNV; test: MNV plaque reduction assay in cell culture; type: cell-based, murine norovirus
Method: As mentioned above, the only robust cellular assay available for the evaluation of potential norovirus inhibitors is the closely related MNV assay. […] Consequently, 54 was further assessed to determine the IC50 value against MNV RdRp activity using an in vitro fluorescent assay. […] 54 was then assessed for cytotoxicity against RAW264.7 mouse macrophage cells using a cell viability assay. […] Using the plaque reduction assay, the inhibitory effects of 54 (0.5–50 µM) were examined against MNV plaque formation in cell culture. […] Compound solubility and its cell-membrane permeability properties could be further improved with structure-activity relationship enhancement of the 54 scaffold to facilitate cellular uptake, and therefore to increase antiviral efficacy. Work on this aspect is ongoing, and it will be reported in due course.
MNV-1 (CW1) culture assays were performed as previously described. Replication was examined using plaque assays[58],[64],[65]. Cytotoxicity was examined using a CellTitre Blue (Promega, Madison, WI, USA) viability assay as described previously.

[6] = read-out: inhibition of human norovirus RdRp activity, 10 µM, initial screen of purchased compounds
[7] = initial screen of purchased compounds
[8] = 10 µM, secondary screen of newly synthesised compounds

SMILES: O=C(CN1C(=O)S/C(=C\c2ccc(-c3ccccc3)o2)C1=O)Nc1ccccc1 [Compound 42a]
- IC50 [1]: 27.4 µM
- inhibition of primed elongation activity (gel-shift) [2]: near complete abolishment of norovirus RdRp activity
- inhibition at 100 µM [3]: 44.4%
- inhibition of MNV RdRp activity ([3]; 100 µM): < 50%

SMILES: O=C(O)c1ccccc1-c1ccccc1C(=O)Nc1cccc(O)c1 [Compound 6]
- inhibition at 10 µM [1, 6]: > 25%
- inhibition at 100 µM [1, 7]: > 50%

SMILES: O=C(CN1C(=O)S/C(=C\c2ccc(-c3ccccc3)o2)C1=O)N1CCOCC1 [Compound 23a]
- inhibition of norovirus Sydney 2012 RdRp activity [1, 8]: complete loss of activity

SMILES: CCC(O)CC(C(=O)NNc1ccccc1)C(=O)NNc1ccccc1 (centres unmarked) [AE-562/12222591]
- inhibition of human norovirus RdRp activity ([1]; 10 µM, initial screen of purchased compounds): over 25%
- inhibition of human norovirus RdRp activity ([1]; 100 µM, initial screen of purchased compounds): over 25%
- solubility (observation) [4]: precipitated heavily in 100% DMSO

SMILES: Cc1ccc(NC(=O)CSc2n[nH]c(-c3ccccc3O)n2)c(C)c1 [Compound 10]
- inhibition at 10 µM [1, 6]: > 25%
- inhibition at 100 µM [1, 7]: > 25%

SMILES: Cc1cc(C(=O)O)ccc1-c1ccc(/C=C2\SC(=O)N(CC(=O)N3CCCCC3)C2=O)o1 [Compound 40e]
- inhibition of norovirus Sydney 2012 RdRp activity [1, 8]: abolished the activity

SMILES: CC(NC(=O)CCC(=O)Nc1ccccc1O)c1ccccc1 (centres unmarked) [Compound 7]
- inhibition at 10 µM [1, 6]: > 25%
- inhibition at 100 µM [1, 7]: > 50%

SMILES: COC(=O)c1ccc(-c2ccc(/C=C3\SC(=O)N(CC(=O)N4CCCCC4)C3=O)o2)cc1 [Compound 24b]
- inhibition at 10 µM ([1]; read-out: inhibition of norovirus Sydney 2012 RdRp activity, 10 µM, secondary screen of newly synthesised compounds): 60%
- inhibition of primed elongation activity (gel-shift) [2]: no appreciable effect

SMILES: Cc1ccc(N2NC(=O)/C(=C\c3ccc(-c4ccc(S(=O)(=O)Nc5ccccc5)cc4)o3)C2=O)cc1 [Compound 55]
- inhibition of primed elongation activity (gel-shift) [2]: minimal inhibition

SMILES: COc1ccc(N2C(=O)c3ccc(C(=O)O)cc3C2=O)cc1NC(=O)c1ccccc1 [Compound 9]
- inhibition at 10 µM [1, 6]: > 25%
- inhibition at 100 µM [1, 7]: > 50%

SMILES: COC(=O)c1ccc(-c2ccc(/C=C3\SC(=O)N(CC(=O)N4CCOCC4)C3=O)o2)cc1 [Compound 23b]
- inhibition of norovirus Sydney 2012 RdRp activity [1, 8]: complete loss of activity

SMILES: Cc1ccccc1-c1ccc(/C=C2\SC(=O)N(CC(=O)N3CCCCC3)C2=O)o1 [Compound 24c]
- inhibition of norovirus Sydney 2012 RdRp activity [1, 8]: loss of inhibitory activity

SMILES: O=C1NC(=O)/C(=C/c2ccc(-c3ccc(C(=O)O)cc3)o2)S1 [Compound 27]
- inhibition of norovirus Sydney 2012 RdRp activity [1, 8]: lacked RdRp inhibitory activity

SMILES: Cc1ccc(N2NC(=O)C(=Cc3ccc(-c4ccc(S(=O)(=O)Nc5nccs5)cc4)o3)C2=O)cc1 [Compound 11]
- IC50 [1]: 5 µM
- inhibition at 10 µM [1, 6]: > 25%
- inhibition at 100 µM [1, 7]: > 50%
- inhibition of primed elongation activity (gel-shift) [2]: complete inhibition
- inhibition at 10 µM ([5]; 10 µM, read-out: inhibition of MNV plaque formation): 37.1%
- cytotoxicity seen in plaque assay ([5]; 100 µM): cytotoxic
